Legend:
[1] = tested on: D-283MED (Other Solid Carcinomas); test: Bliss excess, mean over the matrix (fraction); higher = more synergy
Summary of the method: (§1)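 Bliss excess equals the observed combination effect minus the expected value EA + EB − EA·EB, where EA and EB are the effects of each agent alone. Combination Emax is the second-highest inhibition within the matrix. Inhibition was scaled from CellTiter-Glo 2.0 luminescence, with 0 set by vehicle wells and 1 by blank wells, after 72 hours of two-drug dosing of cells plated in 1536-well plates.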

D-392MG (Glioblastoma) [2] = test: as above
Summary of the method: as §1

[3] = tested on: DOK (Oral Cavity Carcinoma); test: as above
Summary of the method: as §1

EW-22 (Ewing's Sarcoma) = test: as above
Summary of the method: as §1

HCC38 (Breast Carcinoma) = test: as above
Summary of the method: as §1

[4] = tested on: HLE (Hepatocellular Carcinoma); test: as above
Summary of the method: as §1

[5] = tested on: HOP-92 (Non-Small Cell Lung Carcinoma); test: as above
Summary of the method: as §1

HuO9 (Osteosarcoma) = test: as above
Summary of the method: as §1

MCF7 (Breast Carcinoma) = test: as above
Summary of the method: as §1

[6] = tested on: P31-FUJ (Acute Myeloid Leukemia); test: as above
Summary of the method: as §1

[7] = tested on: SK-UT-1 (Other Solid Carcinomas); test: as above
Summary of the method: as §1

[8] = tested on: SW48 (Colorectal Carcinoma); test: as above
Summary of the method: as §1

[9] = tested on: SW948 (Colorectal Carcinoma); test: as above
Summary of the method: as §1

[10] = tested on: U-118-MG (Low Grade Glioma); test: as above
Summary of the method: as §1

[11] = tested on: BICR78 (Oral Cavity Carcinoma); test: combination Emax (second highest fraction inhibited in the dose matrix, 72 h); higher = more inhibition; extreme values may be limits of the assay
Summary of the method: as §1

D-392MG (Glioblastoma) [12] = test: as above
Summary of the method: as §1

[13] = tested on: HOP-92 (Non-Small Cell Lung Carcinoma); test: as above
Summary of the method: as §1

[14] = tested on: NCI-H1688 (Small Cell Lung Carcinoma); test: as above
Summary of the method: as §1

[15] = tested on: P31-FUJ (Acute Myeloid Leukemia); test: as above
Summary of the method: as §1

[16] = tested on: SK-UT-1 (Other Solid Carcinomas); test: as above
Summary of the method: as §1

SMILES	Bliss excess [1]	Bliss excess (D-392MG (Glioblastoma) [2])	Bliss excess [3]	Bliss excess (EW-22 (Ewing's Sarcoma))	Bliss excess (HCC38 (Breast Carcinoma))	Bliss excess [4]	Bliss excess [5]	Bliss excess (HuO9 (Osteosarcoma))	Bliss excess (MCF7 (Breast Carcinoma))	Bliss excess [6]	Bliss excess [7]	Bliss excess [8]	Bliss excess [9]	Bliss excess [10]	combination Emax [11]	combination Emax (D-392MG (Glioblastoma) [12])	combination Emax [13]	combination Emax [14]	combination Emax [15]	combination Emax [16]
CS(=O)(=O)CCNCc1ccc(-c2ccc3ncnc(Nc4ccc(OCc5cccc(F)c5)c(Cl)c4)c3c2)o1 [Lapatinib] + C[C@@H](Oc1cc(-c2cnn(C3CCNCC3)c2)cnc1N)c1c(Cl)ccc(F)c1Cl [Crizotinib] (first compound max 10 µM, 7x7, partner max 10 µM)	-0.0496	-0.0528	-0.0302	-0.0241	-0.0049	-0.072	-0.0051	-0.069	-0.0386	-0.142	-0.0392	-0.0662	-0.0834	-0.0194	0.918	0.498	0.937	0.742	0.957	0.511
CC(=O)c1c(C)c2cnc(Nc3ccc(N4CCNCC4)cn3)nc2n(C2CCCC2)c1=O [Palbociclib] + CC1(C)CCC(CN2CCN(c3ccc(C(=O)NS(=O)(=O)c4ccc(NCC5CCOCC5)c([N+](=O)[O-])c4)c(Oc4cnc5[nH]ccc5c4)c3)CC2)=C(c2ccc(Cl)cc2)C1 [Venetoclax] (first compound max 10 µM, 7x7, partner max 1 µM)	0.0132	-0.07	-0.0542	0.0129	-0.0437	-0.0399	-0.0166	0.0056	-0.0334	-0.073	-0.0343	-0.0251	-0.089	0.0308	0.092	0.223	0.145	0.0922	0.364	0.108
CC(=O)c1c(C)c2cnc(Nc3ccc(N4CCNCC4)cn3)nc2n(C2CCCC2)c1=O [Palbociclib] + Cc1c2c(nn1C)CSCc1cc(n(C)n1)CSc1cc(c3ccccc3c1)OCCCc1c(C(=O)O)n(C)c3c-2c(Cl)ccc13 [AZD5991] (first compound max 10 µM, 7x7, partner max 1 µM)	0.0099	0.0189	-0.0363	0.0039	-0.0244	-0.0339	0.013	0.0088	-0.103	-0.11	0.0096	0.0255	0.0058	-0.0201	0.232	0.4	0.293	0.381	0.907	0.223
CC(=O)c1c(C)c2cnc(Nc3ccc(N4CCNCC4)cn3)nc2n(C2CCCC2)c1=O [Palbociclib] + Cn1cnc2c(F)c(Nc3ccc(Br)cc3Cl)c(C(=O)NOCCO)cc21 [Selumetinib] (first compound max 10 µM, 7x7, partner max 10 µM)	0.0045	-0.0665	0.0057	-0.0158	-0.0291	-0.0418	0.0142	-0.064	-0.0013	0.0152	-0.033	0.0668	-0.0078	-0.0114	0.315	0.262	0.458	0.147	0.475	0.137
COc1cccc(OCCCN)c1-c1cc(Nc2cnc(C#N)cn2)n[nH]1 [Prexasertib] + C=CCn1c(=O)c2cnc(Nc3ccc(N4CCN(C)CC4)cc3)nc2n1-c1cccc(C(C)(C)O)n1 [AZD1775] (first compound max 1 µM, partner max 1 µM)	0.079	0.109	0.108	0.223	0.0246	0.0125	-0.0601	0.109	0.0197	0.0104	0.071	0.1	0.0608	0.0225	0.713	0.66	0.7	0.838	1	0.967
COc1cccc(OCCCN)c1-c1cc(Nc2cnc(C#N)cn2)n[nH]1 [Prexasertib] + CCc1c2c(nc3ccc(O)cc13)-c1cc3c(c(=O)n1C2)COC(=O)[C@]3(O)CC [SN-38] (first compound max 1 µM, 7x7, partner max 0.3 µM)	-0.0222	-0.11	0.0242	-0.0916	-0.0201	-0.0359	0.0418	-0.0301	-0.0081	-0.0507	-0.0125	-0.0333	0.151	-0.0193	0.845	0.551	0.873	0.941	0.979	0.982
COc1cccc(OCCCN)c1-c1cc(Nc2cnc(C#N)cn2)n[nH]1 [Prexasertib] + CN(C)CCCOc1ccc(-c2ccc3ncc4c(c3c2)n(C2CCOCC2)c(=O)n4C)cn1 [AZD0156] (first compound max 1 µM, 7x7, partner max 1 µM)	0.0116	-0.0235	-0.0225	-0.05	-0.0482	-0.0646	0.0056	-0.0958	0.149	0.009	-0.0039	-0.0227	0.0294	0.041	0.593	0.567	0.704	0.568	0.998	0.936
COc1cccc(OCCCN)c1-c1cc(Nc2cnc(C#N)cn2)n[nH]1 [Prexasertib] + C[C@@H]1COCCN1C2=NC(=NC(=C2)C3(CC3)[S@](=N)(=O)C)C4=C5C=CNC5=NC=C4 [AZD6738] (first compound max 1 µM, 7x7, partner max 10 µM)	0.0042	0.0355	0.0689	-0.0326	-0.0029	0	-0.0039	-0.0638	0.017	0.0092	-0.0259	0.0015	0.0334	-0.0136	0.645	0.524	0.669	0.535	1	0.926
COc1cccc(OCCCN)c1-c1cc(Nc2cnc(C#N)cn2)n[nH]1 [Prexasertib] + Cc1cc2ncnn2cc1Nc1ncc2c(n1)n(C1CCOCC1)c(=O)n2C [AZD7648] (first compound max 1 µM, 7x7, partner max 10 µM)	-0.0193	-0.0254	0.0019	-0.0519	-0.0592	-0.064	0.0218	-0.105	0.0688	-0.0255	-0.0227	-0.0344	-0.0155	-0.0584	0.572	0.519	0.663	0.557	1	0.957
COc1cccc(OCCCN)c1-c1cc(Nc2cnc(C#N)cn2)n[nH]1 [Prexasertib] + O=C(c1cc(Cc2n[nH]c(=O)c3ccccc23)ccc1F)N1CCN(C(=O)C2CC2)CC1 [Olaparib] (first compound max 1 µM, 7x7, partner max 10 µM)	-0.0232	-0.0698	-0.0269	-0.0447	-0.0641	-0.0458	-0.0692	0.0553	-0.0236	-0.0141	-0.0422	-0.0795	-0.0118	-0.0445	0.679	0.491	0.665	0.528	1	0.957
COc1cc2c(cc1OCCCCCOc1cc3c(cc1OC)C(=O)N1C=C(C)C[C@H]1C=N3)N=C[C@@H]1CC(C)=CN1C2=O [SG3199] + O=C(c1cc(Cc2n[nH]c(=O)c3ccccc23)ccc1F)N1CCN(C(=O)C2CC2)CC1 [Olaparib] (first compound max 0.001 µM, 7x7, partner max 10 µM)	-0.0347	-0.0623	-0.0368	-0.0544	-0.0356	-0.0323	-0.0048	-0.0273	-0.0444	-0.0645	-0.0181	-0.0321	-0.0092	-0.0488	0.131	0.111	0.192	0.107	0.124	0.046
CCc1c2c(nc3ccc(O)cc13)-c1cc3c(c(=O)n1C2)COC(=O)[C@]3(O)CC [SN-38] + CN(C)CCCOc1ccc(-c2ccc3ncc4c(c3c2)n(C2CCOCC2)c(=O)n4C)cn1 [AZD0156] (first compound max 0.3 µM, 7x7, partner max 1 µM)	-0.024	0.0957	0.0323	0.0276	-0.0453	-0.0434	0.027	0.0365	-0.0388	0.0647	0.0533	0.098	0.237	-0.0108	0.786	0.609	0.606	0.322	0.979	0.97
C[C@@H](c1ccc2nccn2c1)n1nnc2ncc(-c3cnn(C)c3)nc21 [Savolitinib] + CC1(C)CCC(CN2CCN(c3ccc(C(=O)NS(=O)(=O)c4ccc(NCC5CCOCC5)c([N+](=O)[O-])c4)c(Oc4cnc5[nH]ccc5c4)c3)CC2)=C(c2ccc(Cl)cc2)C1 [Venetoclax] (first compound max 1 µM, 7x7, partner max 1 µM)	-0.0144	-0.0454	-0.0578	-0.0281	-0.0111	-0.0232	-0.0181	-0.0531	-0.042	-0.102	-0.0234	-0.0289	-0.0488	-0.0416	0.201	0.266	0.201	0.239	0.372	0.149
C[C@@H](c1ccc2nccn2c1)n1nnc2ncc(-c3cnn(C)c3)nc21 [Savolitinib] + Cc1c2c(nn1C)CSCc1cc(n(C)n1)CSc1cc(c3ccccc3c1)OCCCc1c(C(=O)O)n(C)c3c-2c(Cl)ccc13 [AZD5991] (first compound max 1 µM, 7x7, partner max 1 µM)	0.0649	-0.001	-0.0681	-0.0595	-0.0279	-0.0053	-0.0338	-0.0416	-0.0242	-0.049	0.0093	-0.0232	-0.0305	0.0095	0.231	0.31	0.197	0.314	0.94	0.174

— the supplement of paper PMC11061612
